This is an account of results in patent US20200383946A1, “LIPOIC ACID FORMULATIONS” (Aciont Inc., priority 2019, published 2020).

Molecules are shown by their SMILES.

In general, solubility refers to the dissolved amount per volume that the medium holds. A low value points to a poorly soluble substance.

This data set can be described thus: physchem. The data set is classed as physicochemical. Conditions: aqueous buffer, solubility of DHLA. The text has this: Dihydrolipoic acid (DHLA) was obtained from Sigma (Cat #T8260).
Again, the PBS helped maintain the pH within a suitable pH range.

Take `O=C(O)CCCC[C@@H](S)CCS` (racemic) [DHLA, Dihydrolipoic acid]: the solubility was over 76 mg/mL.
